Read-outs that look alike come from different tables or passages of the source.
Columns and labels:
[1] = pH of 0.1M solution of the acids tested (Table 1); assay type: physicochemical
[2] = Conversion of PNMDC to MITC as a function of pH; assay type: physicochemical; conditions: FIGS. 1 and 2; over three hours and over five minutes
Source text: In the decomposition of monoalkyldithiocarbamate salt, the rate at which alkyl isothiocyanate is formed can be determined by the pH of the solution. […] At lower pH levels, a competing reaction, particularly hydrolysis to form carbon disulfide and methylammonium ion, can occur, thus lowering the yield of MITC.
While good conversion can occur over a range of pH values, the results shown in FIGS. 1 and 2 indicate an optimum conversion occurring at about pH 3 (e.g., 2.5-3.5).
An HPLC method was developed to allow the reaction mixtures to be analyzed in real time. This procedure stopped the decomposition of PNMDC by converting any unreacted dithiocarbamate ion to a stable nickel salt:
This compound was then detected by its UV absorption at 365 nm. MITC is unaffected by the presence of the Ni^++ ion and is detected by its UV absorption at 230 nm.

pH of 0.1M Solution ([1]; listed as Citric Acid (2)) | SMILES | pH of 0.1M Solution [1] | pH of optimum conversion of PNMDC to MITC [2]
– | O=CO [Formic Acid] | 2.39 | –
2.88 | O=C(O)CC(O)(CC(=O)O)C(=O)O [Citric Acid (1), Citric Acid] | 2.06 | –
– | CNC(=S)[S-].[K+] [PNMDC, potassium N-methyldithiocarbamate] | – | ~3
– | CC(=O)O [Acetic Acid] | 2.88 | –
– | O=C(O)c1ccccc1 [Benzoic Acid] | 2.61 | –

Reference: patent US9078436B2 (priority 2012, dated 2015)
